Measured values: publication PMC3584946, “Three-component synthesis of pyrano[2,3-d]-pyrimidine dione derivatives facilitated by sulfonic acid nanoporous silica (SBA-Pr-SO3H) and their docking and urease inhibitory activity” (DARU Journal of Pharmaceutical Sciences, 2013)
Like-named read-outs stand apart in the source and are kept apart here.

Target: Jack bean urease (Canavalia ensiformis, UniProt P07374)
Experiment: phenol red urease assay, […] nm
Type: biochemical
[1] = 100 mM urea, 10 mM phosphate pH 7.0, 37°C, 30 min, read-out: IC50

Jack bean urease, sequence (P07374 whole entry): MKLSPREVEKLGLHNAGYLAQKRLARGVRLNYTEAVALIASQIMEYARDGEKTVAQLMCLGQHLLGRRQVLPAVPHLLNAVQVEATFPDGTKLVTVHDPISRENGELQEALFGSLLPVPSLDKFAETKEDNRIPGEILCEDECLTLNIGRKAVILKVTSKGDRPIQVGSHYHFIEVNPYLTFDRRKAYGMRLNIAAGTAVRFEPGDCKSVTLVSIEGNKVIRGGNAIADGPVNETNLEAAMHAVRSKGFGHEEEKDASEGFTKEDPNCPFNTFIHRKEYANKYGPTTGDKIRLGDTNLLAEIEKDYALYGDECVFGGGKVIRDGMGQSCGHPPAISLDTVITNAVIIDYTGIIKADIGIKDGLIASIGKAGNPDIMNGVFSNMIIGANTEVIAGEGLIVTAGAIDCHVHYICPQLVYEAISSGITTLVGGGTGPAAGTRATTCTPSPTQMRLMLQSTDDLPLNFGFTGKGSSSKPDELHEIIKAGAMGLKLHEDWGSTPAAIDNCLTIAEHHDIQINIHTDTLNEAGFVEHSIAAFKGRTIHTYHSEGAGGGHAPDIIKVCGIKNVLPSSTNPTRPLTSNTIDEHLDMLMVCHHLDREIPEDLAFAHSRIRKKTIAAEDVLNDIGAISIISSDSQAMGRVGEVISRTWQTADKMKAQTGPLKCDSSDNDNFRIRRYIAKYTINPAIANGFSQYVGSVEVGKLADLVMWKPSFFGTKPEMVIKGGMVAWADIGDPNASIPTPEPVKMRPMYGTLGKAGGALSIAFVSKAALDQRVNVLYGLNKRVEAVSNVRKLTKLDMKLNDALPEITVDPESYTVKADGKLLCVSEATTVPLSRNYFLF

Structure (SMILES) | IC50 [1] | IC50
Cc1cccc(C2C(C#N)=C(N)Oc3[nH]c(=O)[nH]c(=O)c32)c1 (stereo not drawn) [4f, 7-Amino-6-cyano-5-(3-methylphenyl)-5H-pyrano[2,3-d]pyrimidine-2,4(1H,3H)-diones] | 41.1 µM | 
COc1cccc(C2C(C#N)=C(N)Oc3[nH]c(=O)[nH]c(=O)c32)c1 (stereo not drawn) [4h, 7-Amino-6-cyano-5-(3-methoxylphenyl)-5H-pyrano[2,3-d]pyrimidine-2,4(1H,3H)-diones] |  | 106 µM
N#CC1=C(N)Oc2[nH]c(=O)[nH]c(=O)c2C1c1c(Cl)cccc1Cl (stereo not drawn) [4k, 7-Amino-6-cyano-5-(2,6-dichlorophenyl)-5H-pyrano[2,3-d]pyrimidinone] | 41 µM | 
